Results as given in PMC2924234 (Acta Crystallographica Section D: Biological Crystallography, 2006).

Experiments:
male CF-1 mice = conditions: mouse, in vivo
potassium ion-channel = conditions: cited from earlier work

Substance: conkunitzin-S1
- 95% confidence limits of the ED50 of seizure activity (male CF-1 mice): 0.3 to 2 nmol
- Behaviour observed after injection (male CF-1 mice): spastic running followed by tonic extension seizures
- ED50 of seizure activity (male CF-1 mice): 1 nmol per mouse
- Pore-blocking activity (potassium ion-channel): potassium ion-channel pore-blocking toxin
